Assay results taken from patent US20230310356A1, “COMPOSITION FOR PREVENTING, AMELIORATING, OR TREATING BRAIN DAMAGE AND MILD COGNITIVE IMPAIRMENT COMPRISING GLUTAMINE AS EFFECTIVE COMPONENT” (INDUSTRY-ACADEMIC COOPERATION FOUNDATION GYEONGSANG …, priority 2020, published 2023).

Legend:
Format in all cases: in vivo, mouse
p67phox = experiment: Double-IHC protein expression after CIS and glutamine supplementation: p67phox; details: microglial cells in infralimbic cortex and hippocampal CA1 region; glutamine supplementation diet vs stress group
Procedure: (§1) Control (CTL) is a group which received normal diet (common diet with nutritional balance) without any stress, CTL+Gln group is a normal diet group supplemented with glutamine (150 mg/kg of feed) and without any stress, STR is a normal diet group under stress, and STR+Gln group is a normal diet group supplemented with glutamine (150 mg/kg of feed) under stress. The stress group (STR) was individually brought by force to a restrainer for 2 hours every day (i.e., between 2 PM and 4 PM) so that the animals are applied with chronic immobilization stress for 15 days. To determine the specific changes in the brain tissues after glutamine supplementation, double staining was carried out with a cell marker so that the proteins related to a change in ROS/RNS content (i.e., iNOS; nNOS; and p47phox and p67phox as a subunit of NOX) with cell markers are analyzed by double-IHC (immunohistochemistry). Twenty-four hours after applying the last stress, the mouse was anesthetized with avertin, and perfused with PBS (pH 7.4) and 4% formaldehyde. After that, the brain was removed, fixed, and cut to a thickness with 40 μm. […]

corticosterone = experiment: Change in plasma corticosterone level after CIS and glutamine supplementation; details: STR+Gln vs STR; glutamine 150 mg/kg of feed
Procedure: In the present invention, C57BL/6 male mice (7-weeks old, KOATECH, South Korea) were kept under standard conditions (i.e., temperature of 22 to 24° C., humidity of 50 to 70%, and 12-hour light/dark cycle with lighting on 6 AM), and the animals were allowed to have free access to diets and water. The animals used for the present invention were handled according to the protocol (GNU-161128-M0068) acknowledged by Gyeongsang National University Institutional Animal Care and Use Committee (GNU IACUC), which follows the guidelines of National Institutes of Health (NIH, Bethesda, MD, USA). Control (CTL) is a group which received normal diet (common diet with nutritional balance) without any stress, CTL+Gln group is a normal diet group supplemented with glutamine (150 mg/kg of feed) and without any stress, STR is a normal diet group under stress, and STR+Gln group is a normal diet group supplemented with glutamine (150 mg/kg of feed) under stress. The stress group (STR) was individually brought by force to a restrainer for 2 hours every day (i.e., between 2 PM and 4 PM) so that the animals are applied with chronic immobilization stress for 15 days.

iNOS = experiment: Double-IHC protein expression after CIS and glutamine supplementation: iNOS; details: microglial cells in infralimbic cortex and hippocampal CA1 region; glutamine supplementation diet vs stress group
Procedure: as §1

[1] = tested on: C57BL/6 male mice applied with chronic immobilization stress; experiment: Behavior analysis by ORT and OLT after CIS and glutamine supplementation; details: STR+Gln vs STR; glutamine 150 mg/kg of feed, after 15 days stress
Procedure: Control (CTL) is a group which received normal diet (common diet with nutritional balance) without any stress, CTL+Gln group is a normal diet group supplemented with glutamine (150 mg/kg of feed) and without any stress, STR is a normal diet group under stress, and STR+Gln group is a normal diet group supplemented with glutamine (150 mg/kg of feed) under stress. The stress group (STR) was individually brought by force to a restrainer for 2 hours every day (i.e., between 2 PM and 4 PM) so that the animals are applied with chronic immobilization stress for 15 days. By using the cohorts of Example 1, behavior analysis was carried out. After applying the stress for 15 days, behavior analysis was immediately carried out. ORT includes three separate sessions, i.e., habituation, familiarization, and test. During 2 days of the habituation, the animals were allowed to stay in an empty open space for 10 minutes a day. After the habituation, they were subjected to familiarization by placing two identical objects in the open space. Mice of each test group were allowed to explore freely the object for 10 minutes. […] Discrimination index (DI) in ORT was then calculated according to the following formula (1). […] Discrimination index (DI) in OLT was then calculated according to the following formula (2). […]

NC(=O)CC[C@H](N)C(=O)O [glutamine]
expression amount of p67phox (p67phox): statistically significant decrement | plasma corticosterone level (corticosterone): statistically significant decrease | expression amount of iNOS (iNOS): statistically significant decrement | discrimination index (DI) in OLT [1]: higher DI | discrimination index (DI) in ORT [1]: higher DI
